According to publication PMC12384620, “Hit-to-Lead Studies of Pyrazinylpiperazines against Visceral Leishmaniasis: Pharmacokinetic Profile and In Vivo Efficacy of Potent Compounds against Leishmania infantum” (ACS Pharmacology & Translational Science, 2025):

Tests used:
[1] = tested on: L. infantum; assay: Antileishmanial activity against L. infantum amastigotes in THP-1 macrophages; assay type: cell-based; settings: Leishmania infantum; growth of L. infantum in THP-1 macrophages, 72 h
Experimental: The in vitro anti-L. infantum activity (IC50) of each compound was evaluated on THP-1 cells (human leukemia monocytic cell line) infected with L. infantum promastigotes, and the in vitro cytotoxicity (CC50) was determined over the THP-1 cell line. The selectivity index (SI) was calculated as the ratio of the CC50 value determined in the cytotoxicity assay, divided by the IC50 value determined in the antileishmanial activity assay.
Cells derived from the human monocytic strain THP-1 were cultured in complete Rowell Park Memorial Institute (RPMI)-1640 medium (supplemented with 10% fetal bovine serum, 100 U/mL penicillin, and 100 μg/mL streptomycin). Monocytes were differentiated into macrophages by the addition of 20 ng/mL phorbol myristate acetate (PMA). After 72 h, the macrophages (5 × 10^4), in black 96-well microtiter plates (Corning Incorporated, Corning, NY), were infected with Leishmania (Leishmania) infantum (MHOM/BR/1974/PP75) promastigotes transfected with gene tdTomato, on the second day of the stationary phase (20 parasites per macrophage) for 4 h. […] The IC50 values were determined by nonlinear regression using a variable slope model (log(concentration) vs growth inhibition) with the GraphPadPrism v8.2.0 (CA, USA) software. Controls with uninfected cells, untreated infected cells, and infected cells treated with amphotericin B at 0.25 μM (positive control) or DMSO 1% were used. Quadruplicates were run on the same plate, and the experiments were repeated at least once.

[2] = PAMPA blood-brain barrier permeability; assay type: in vitro ADME; settings: PAMPA-BBB, pH 7.4; read-out: BBB Pe
Experimental: One mg of each compound was solubilized in ethanol (1 mL) in a 5 mL flask, and an additional 500 μL ethanol and 3.5 mL PBS buffer (pH 7.4) were added to this solution. […] 180 μL of a PBS (pH 7.4)/ethanol (70:30) solution were then added to the wells of a 96-well receiver plate, and 5 μL of a porcine brain lipid solution (20 mg/mL in dodecane) to the wells of a 96-well donor plate. […] Afterward, the donor plate was removed, and the content of the receiver plate was transferred to a UV reading plate, which was read using a microplate reader (SpectraMax 5 – Molecular Devices). A reference sample for the internal correction of the microplate reader was prepared using 180 μL of the PBS (pH 7.4)/ethanol (70:30) solution (adapted from ref ). The optical density values obtained from the content of the receiver plate were compared with the ones obtained from readings performed with the initial solutions containing each compound, before their addition to the donor plate. […] The optical density values for the experimental controls were used to determine the equation of the linear regression (optical density vs P e ), which allowed the determination of the P e value of each compound from the optical density values obtained from the receiver plate, using an in-house Microsoft Excel spreadsheet.

[3] = Metabolic stability in mouse liver microsomes; assay type: in vitro ADME; settings: pH 7.4, MLM, with NADPH cofactor; for microsomal CLint at 5 μM: read-out: Clint, intrinsic clearance; for half-life at 5 μM: read-out: t1/2, microsomal half-life
Experimental: To a microcentrifuge tube was added 1 mg/mL Mouse Liver Microsome (MLM), a NADPH generating system consisting of 1 mM NADP+, 1.5 mM MgCl2, 3.5 mM glucose-6-phosphate and 0.5 U/mL glucose-6-phosphate dehydrogenase, and phosphate buffer (pH 7.4) in a sufficient amount for a total volume of […]. After a 15 min preincubation at 37 °C in a water bath, the enzymatic reactions were started by adding 2 μL of a […] stock solution of each compound to be assessed, reaching a final concentration of 5 μM in the tested compound. , The samples were further incubated at 37 °C under stirring (30 rpm) for predetermined periods (0, 15, 30, 45, and 60 min), and 500 μL chilled MeOH and 500 μL chilled acetonitrile were added before the samples were homogenized and left standing in an ice bath to accelerate protein precipitation. The resulting mixture was centrifugated at 13000 rpm for 15 min at 4 °C, the organic layer was extracted and 2 μL internal standard (clonazepam 5 μM) was added. Finally, the samples were filtered through a PVDF filter (Millex 0.22 μm x 13 mm) and analyzed by HPLC-PDA. ,

[4] = tested on: L. infantum GSK-3A; assay: GSK-3A enzyme inhibition (LANCE TR-FRET); assay type: biochemical; settings: concentrations up to 30 μM, 50 nM enzyme
Experimental: (§1) The following controls were included: protein in 1% DMSO (100% activity), 10 μM AZD-5438 (0% activity), and buffer without enzyme (blank).
(§2) To detect the progress of the enzymatic reaction, a commercially available TR-FRET-based assay (LANCE TR-FRET, PerkinElmer) was used. In the enzymatic step, purified protein kinase and the peptide substrate were incubated with compounds 1 – 6 for 30 min at 25 °C before the addition of ATP to start the reaction, which was run at 30 °C (2 h for GSK-3A or 1 h 15 min for GSK-3B). […]. […]
(§3) The fluorescence signal was measured using a CLARIOstar microplate reader (BMG LABTECH) set with an excitation wavelength of 320 nm and an emission wavelength of 665 nm. MARS software (BMG LABTECH) was used to analyze the data obtained after reading each plate. The background fluorescence signal (blank) was subtracted from the fluorescence signal obtained for each reaction, in order to reflect the specific signal of enzymatic activity. The data was then analyzed with the GraphPad Prism v10 software, using the equation “log(inhibitor) vs response - variable slope (four parameters) - Y = Bottom + (Top-Bottom)/(1 + 10̂((LogIC50-X)* HillSlope))” to obtain dose–response curves and determine IC50 values. […]

[5] = tested on: L. infantum GSK-3B; assay: GSK-3B enzyme inhibition (LANCE TR-FRET); assay type: biochemical; settings: concentrations up to 30 μM, 10 nM enzyme
Experimental: as §1, §2, §3

Compound	IC50 [1]	Papp at 0.2 mg/mL [2]	microsomal CLint at 5 μM [3]	half-life at 5 μM [3]	inhibition of L. infantum GSK-3A [4]	inhibition of L. infantum GSK-3B [5]
O=C(c1ccc(O)c(Cl)c1)N1CCN(c2cnccn2)CC1 [Compound 1, (3-Chloro-4-hydroxyphenyl)(4-(pyrazin-2-yl)piperazin-1-yl)methanone]	11.9 ± 2.2 µM	0.52 ×10⁻⁶ cm/s	1.23 µL/min/mg	2.36 h	did not exert any inhibition	did not exert any inhibition
O=C(c1ccc(O)cc1)N1CCN(c2cnccn2)CC1 [Compound 2, (4-Hydroxyphenyl)(4-(pyrazin-2-yl)piperazin-1-yl)methanone]	3.1 ± 1.3 µM	0.55 ×10⁻⁶ cm/s	0.55 µL/min/mg	5.25 h	no inhibitory effect	no inhibitory effect
